Laboratory results reported in EP1401829B1, “NOVEL HETEROCYCLIC ANTIBACTERIAL COMPOUNDS” (Microbiotix, Inc., priority 2001, dated 2002).
≈ marks a conversion by molar mass, not a printed value.

Experiments:
B. subtilis Pol IIIC = biological target: T1, B. subtilis Pol IIIC (Bacillus subtilis, UniProt P13267); assay: Polymerase IIIC (Pol IIIC) assay, determination of Ki values; type: biochemical; details: Ki (µM) Pol IIIC, assay in absence of dGTP or dATP; Ki is the concentration that reduces control polymerase IIIC activity by 50 percent
T1 construct: made in house
Method: (§1) The following methods were used to characterize representative compounds. Minimal Inhibitory Concentration (MIC) determinations. MIC values were determined in 96 well plates, with bacterial growth monitored at OD 600 nm in 200µl following an initial bacterial seeding at approximately 1x10^5 colony forming units (CFU)/ml. Each drug is evaluated at five concentrations, with five data points at each dilution. MIC values (µg/ml) were determined against actively growing cultures in Heart-Brain Infusion (HBI) medium. Cell growth in cultures supplemented with a test compound was calculated as a percent of control at OD 600 nm after 16 to 18 hours at 37°C. […] Polymerase IIIC (Pol IIIC) assay. DNA polymerase activity (or inhibition thereof) was measured in a 96-well plate format. B. subtilis Pol IIIC was isolated as described by Hammond and Brown (Protein Expr. Purif., 3: 65-70 (1992)). Each 25 µl assay contained 30 mM Tris, pH 7.5, 10 mM magnesium acetate, 4 mM dithiothreitol, 20% glycerol, with 25 µM dATP, dCTP, dGTP and 10 µM dTTP (^3H-labelled at 1.44 Ci/mmole) and 0.4 mg/ml activated calf thymus DNA as substrates, as described previously (see Barnes et al, op. cit). Assays were initiated by the addition of 0.025 to 0.06 units of enzyme 1 unit is the amount required to incorporate 250 pmoles of [^3H] dTMP in a standard assay), incubated for 10 minutes at 30°C and terminated by the addition of 200 µl of cold 10% trichloroacetic acid (TCA),10 mM sodium pyrophosphate. Precipitated labeled DNA was collected on glass fiber filter plates, washed, dried, and counted in a liquid scintillation counter. Determination of Ki values. DNA polymerase activity was measured in a 96-well plate format in the absence of dGTP or dATP, depending on the structure of the test compound. Each 25 µl assay contained 30 mM Tris, pH 7.5, 10 mM magnesium acetate, 4 mM dithiothreitol, 20% glycerol, with 25 µM dATP, dCTP, and 10 µM dTTP (^3H-labelled at 1.44 Ci/mmole) and 0.4 mg/ml activated calf thymus DNA as substrates, as described previously. […] Assays were initiated by the addition of 0.025 to 0.06 units of enzyme (1 unit is the amount required to incorporate 250 pmoles of [^3H] dTMP in a standard assay), incubated for 10 minutes at 30 °C and terminated by the addition of 200 µl of cold 10% trichloroacetic acid, 10 mM sodium pyrophosphate. Precipitated labeled DNA was collected on glass fiber filter plates, washed, dried, and counted in a liquid scintillation counter. Ki is the concentration of test compound that reduces the control polymerase IIIC activity by 50 percent.

B. subtilis = assay: Minimal Inhibitory Concentration (MIC) determination, 96 well plates; type: cell-based, Bacillus subtilis; details: Bacillus subtilis; HBI medium, 16 to 18 hours at 37°C; read-out: MIC (µg/ml) B. subtilis
Method: as §1
(§2) MIC values were determined for the Gram positive bacteria Bacillus subtilis, Staphylococcus aureus (two strains), Enterococcus fecalis, Enterococcus fecium, and for the Gram negative bacterium Escherichia coli.

S. aureus = assay: as above; type: cell-based, Staphylococcus aureus; details: Staphylococcus aureus; HBI medium, 16 to 18 hours at 37°C; read-out: MIC (µg/ml) S. aureus
Method: (§3) The following methods were used to characterize representative compounds. Minimal Inhibitory Concentration (MIC) determinations. MIC values were determined in 96 well plates, with bacterial growth monitored at OD 600 nm in 200µl following an initial bacterial seeding at approximately 1x10^5 colony forming units (CFU)/ml. Each drug is evaluated at five concentrations, with five data points at each dilution. MIC values (µg/ml) were determined against actively growing cultures in Heart-Brain Infusion (HBI) medium. Cell growth in cultures supplemented with a test compound was calculated as a percent of control at OD 600 nm after 16 to 18 hours at 37°C. This plate format conserves test compound and provides precise, quantitative data with low standard deviation determinations. Polymerase IIIC (Pol IIIC) assay. DNA polymerase activity (or inhibition thereof) was measured in a 96-well plate format. B. subtilis Pol IIIC was isolated as described by Hammond and Brown (Protein Expr. Purif., 3: 65-70 (1992)). Each 25 µl assay contained 30 mM Tris, pH 7.5, 10 mM magnesium acetate, 4 mM dithiothreitol, 20% glycerol, with 25 µM dATP, dCTP, dGTP and 10 µM dTTP (^3H-labelled at 1.44 Ci/mmole) and 0.4 mg/ml activated calf thymus DNA as substrates, as described previously (see Barnes et al, op. cit). Assays were initiated by the addition of 0.025 to 0.06 units of enzyme 1 unit is the amount required to incorporate 250 pmoles of [^3H] dTMP in a standard assay), incubated for 10 minutes at 30°C and terminated by the addition of 200 µl of cold 10% trichloroacetic acid (TCA),10 mM sodium pyrophosphate. Precipitated labeled DNA was collected on glass fiber filter plates, washed, dried, and counted in a liquid scintillation counter. Determination of Ki values. DNA polymerase activity was measured in a 96-well plate format in the absence of dGTP or dATP, depending on the structure of the test compound. Each 25 µl assay contained 30 mM Tris, pH 7.5, 10 mM magnesium acetate, 4 mM dithiothreitol, 20% glycerol, with 25 µM dATP, dCTP, and 10 µM dTTP (^3H-labelled at 1.44 Ci/mmole) and 0.4 mg/ml activated calf thymus DNA as substrates, as described previously. To each well were added 2 µl of compound solution to give final concentrations ranging from 20 - 0.027 µg/ml in the assay. Assays were initiated by the addition of 0.025 to 0.06 units of enzyme (1 unit is the amount required to incorporate 250 pmoles of [^3H] dTMP in a standard assay), incubated for 10 minutes at 30 °C and terminated by the addition of 200 µl of cold 10% trichloroacetic acid, 10 mM sodium pyrophosphate. Precipitated labeled DNA was collected on glass fiber filter plates, washed, dried, and counted in a liquid scintillation counter. Ki is the concentration of test compound that reduces the control polymerase IIIC activity by 50 percent.
as §2

S.aureus (Smith) = assay: as above; type: cell-based, Staphylococcus aureus; details: Staphylococcus aureus; HBI medium, 16 to 18 hours at 37°C; read-out: MIC (µg/ml) S.aureus (Smith)
Method: as §1, §2

E. fecalis = assay: as above; type: cell-based, Enterococcus fecalis; details: Enterococcus; HBI medium, 16 to 18 hours at 37°C; read-out: MIC (µg/ml) E. fecalis
Method: as §1, §2

E. fecium = assay: as above; type: cell-based, Enterococcus fecium; details: Enterococcus; HBI medium, 16 to 18 hours at 37°C; read-out: MIC (µg/ml) E. fecium
Method: as §1, §2

E. coli = assay: as above; type: cell-based, Escherichia coli; details: Escherichia coli; HBI medium, 16 to 18 hours at 37°C; read-out: MIC (µg/ml) E. coli
Method: as §3, §2

T1 sequence (P13267 whole entry): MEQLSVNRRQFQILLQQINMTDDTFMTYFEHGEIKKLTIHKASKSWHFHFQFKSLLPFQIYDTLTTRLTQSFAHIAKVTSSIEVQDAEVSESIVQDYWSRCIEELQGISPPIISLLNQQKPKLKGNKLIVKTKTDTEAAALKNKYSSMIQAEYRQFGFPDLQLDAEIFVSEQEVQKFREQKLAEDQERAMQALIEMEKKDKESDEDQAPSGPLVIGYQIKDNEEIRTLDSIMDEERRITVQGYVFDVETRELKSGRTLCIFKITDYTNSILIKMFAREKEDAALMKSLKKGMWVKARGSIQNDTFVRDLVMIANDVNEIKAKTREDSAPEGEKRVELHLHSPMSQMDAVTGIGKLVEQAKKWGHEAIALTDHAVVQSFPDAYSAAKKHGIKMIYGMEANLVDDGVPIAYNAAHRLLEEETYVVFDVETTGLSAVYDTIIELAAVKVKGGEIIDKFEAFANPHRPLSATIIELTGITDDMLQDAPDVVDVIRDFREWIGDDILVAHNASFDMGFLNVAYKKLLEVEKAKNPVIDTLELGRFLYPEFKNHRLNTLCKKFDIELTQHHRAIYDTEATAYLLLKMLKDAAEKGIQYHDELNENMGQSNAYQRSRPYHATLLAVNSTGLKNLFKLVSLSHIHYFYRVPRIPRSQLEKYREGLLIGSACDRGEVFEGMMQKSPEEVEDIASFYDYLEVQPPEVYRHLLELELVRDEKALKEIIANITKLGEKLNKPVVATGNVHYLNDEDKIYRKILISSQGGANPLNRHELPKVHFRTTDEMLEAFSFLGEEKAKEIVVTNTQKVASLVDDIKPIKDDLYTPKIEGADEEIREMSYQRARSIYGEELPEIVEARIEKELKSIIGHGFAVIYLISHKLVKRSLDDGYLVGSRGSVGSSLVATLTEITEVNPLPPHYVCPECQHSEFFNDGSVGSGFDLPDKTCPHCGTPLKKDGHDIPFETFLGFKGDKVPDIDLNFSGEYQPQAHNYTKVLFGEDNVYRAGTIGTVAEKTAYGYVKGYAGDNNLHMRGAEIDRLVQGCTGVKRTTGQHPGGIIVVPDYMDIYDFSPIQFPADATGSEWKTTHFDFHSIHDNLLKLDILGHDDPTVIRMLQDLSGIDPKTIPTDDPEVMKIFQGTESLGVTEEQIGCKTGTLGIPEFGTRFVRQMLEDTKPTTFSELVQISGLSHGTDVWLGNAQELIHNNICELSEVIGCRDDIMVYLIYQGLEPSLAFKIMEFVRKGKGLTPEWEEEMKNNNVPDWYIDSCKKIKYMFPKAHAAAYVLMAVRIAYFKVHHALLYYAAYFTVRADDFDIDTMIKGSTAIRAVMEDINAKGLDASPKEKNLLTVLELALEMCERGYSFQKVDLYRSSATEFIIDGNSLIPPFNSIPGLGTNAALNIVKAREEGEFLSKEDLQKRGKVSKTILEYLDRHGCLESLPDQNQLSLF

SMILES | Ki (B. subtilis Pol IIIC) [µM] | MIC (B. subtilis) [µg/mL] | MIC (S. aureus) [µg/mL] | MIC (S.aureus (Smith)) [µg/mL] | MIC (E. fecalis) [µg/mL] | MIC (E. fecium) [µg/mL] | MIC (E. coli) [µg/mL]
Cc1ccc(Nc2cc(=O)n(CCCCN3CCN(c4c(F)cc5c(=O)c(C(=O)O)cn(C6CC6)c5c4F)CC3)c(=O)[nH]2)cc1C [Compound 101, 3-{4-[1-(1-cyclopropyl-3-carboxy-4-oxo-6,8-difluoro-7-quinolyl)-4-piperazinyl]butyl}-6-(3,4-dimethylanilino)uracil] | 0.024 | 0.235 (≈ 0.37 µM) | 0.625 (≈ 0.985 µM) | 0.313 (≈ 0.493 µM) | 0.937 (≈ 1.48 µM) | 1.25 (≈ 1.97 µM) | 5 (≈ 7.88 µM)
CCc1cc(Nc2cc(=O)n(CCCCN3CCN(c4c(F)cc5c(=O)c(C(=O)O)cn(C6CC6)c5c4F)C[C@@H]3C)c(=O)[nH]2)ccc1C [Compound 71, (S)-3-{4-[1-(1-cyclopropyl-3-carboxy-4-oxo-6,8-difluoro-7-quinolyl)-3-methyl-4-piperazinyl]butyl}-6-(3-ethyl-4-methylanilino)uracil] | 0.007 | 0.156 (≈ 0.235 µM) | 0.313 (≈ 0.472 µM) | 0.156 (≈ 0.235 µM) | 1.25 (≈ 1.89 µM) | 1.87 (≈ 2.82 µM) | 5 (≈ 7.54 µM)
CCc1cc(Nc2cc(=O)n(CCCCN3CCN(c4cc5c(cc4F)c(=O)c(C(=O)O)cn5C4CC4)C[C@@H]3C)c(=O)[nH]2)ccc1C [Compound 100, (S)-3-{4-[1-(1-cyclopropyl-3-carboxy-4-oxo-6-fluoro-7-quinolyl)-3-methyl-4-piperazinyl]butyl}-6-(3-ethyl-4-methylanilino)uracil] | 0.011 | 0.156 (≈ 0.242 µM) | 0.937 (≈ 1.45 µM) | 0.625 (≈ 0.969 µM) | 0.475 (≈ 0.737 µM) | 0.937 (≈ 1.45 µM) | 50 (≈ 77.5 µM)
CCc1cc(Nc2cc(=O)n(CCCCN3CCN(c4cc5c(cc4F)c(=O)c(C(=O)O)cn5-c4ccc(F)cc4F)CC3C)c(=O)[nH]2)ccc1C (centres unmarked) [Compound 89, 3-{4-[1-(1-{2,4-difluorophenyl}-3-carboxy-4-oxo-6-fluoro-7-quinolyl)-3-methyl-4-piperazinyl]butyl}-6-(3-ethyl-4-methylanilino)uracil] | 0.018 | 0.156 (≈ 0.218 µM) | 0.313 (≈ 0.437 µM) | 0.156 (≈ 0.218 µM) | 0.625 (≈ 0.872 µM) | 0.625 (≈ 0.872 µM) | > 80
O=C(O)c1cn(C2CC2)c2cc(N3CCN(CCCCn4c(=O)cc(NCc5ccc(Cl)c(Cl)c5)[nH]c4=O)CC3)c(F)cc2c1=O [Compound 68, 3-{4-[1-(1-cyclopropyl-3-carboxy-4-oxo-6-fluoro-7-quinolyl)-4-piperazinyl]butyl}-6-(3,4-dichlorobenzylamino)uracil] | 0.047 | 0.95 (≈ 1.41 µM) | 1.25 (≈ 1.86 µM) | 0.625 (≈ 0.931 µM) | 40 (≈ 59.6 µM) | 1.25 (≈ 1.86 µM) | 12.5 (≈ 18.6 µM)
